Target: T1, mAChR M4 (UniProt P08173)
T1 construct: hM1 and hM4 cDNAs were purchased from Missouri S&T cDNA Resource
T1 sequence (P08173 1-479): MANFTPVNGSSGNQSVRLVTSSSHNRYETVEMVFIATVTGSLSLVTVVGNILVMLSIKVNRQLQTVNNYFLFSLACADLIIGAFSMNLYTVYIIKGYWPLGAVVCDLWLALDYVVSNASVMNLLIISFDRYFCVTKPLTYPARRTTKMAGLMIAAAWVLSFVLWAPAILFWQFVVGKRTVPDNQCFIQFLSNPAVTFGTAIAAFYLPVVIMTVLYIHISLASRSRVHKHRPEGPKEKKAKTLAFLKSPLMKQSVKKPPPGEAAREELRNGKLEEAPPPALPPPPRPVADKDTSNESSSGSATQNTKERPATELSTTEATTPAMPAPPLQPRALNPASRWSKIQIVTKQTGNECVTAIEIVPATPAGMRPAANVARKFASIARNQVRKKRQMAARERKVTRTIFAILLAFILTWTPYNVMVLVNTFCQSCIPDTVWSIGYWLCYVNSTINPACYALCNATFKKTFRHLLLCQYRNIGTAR
Test: mAChR M4 cell-based functional assay (calcium mobilization, Fluo-4, FDSS)
Settings: for Emax (%)*: % ACh maximum at 30 μM; for pEC50: positive allosteric modulator activity, EC20 acetylcholine response; for pEC50 / EC50: CHO-K1 cells; for EC50: positive allosteric modulator activity: concentration-dependent increase in the EC20 acetylcholine response, >10 μM estimated for low potency (no plateau)
Procedure, shortened: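 CHO-K1 cells stably expressing hM4 or rM4 with chimeric Gqi5, loaded with Fluo-4 AM for 50 min at 37° C. Calcium read on FDSS 6000 over 300 s: compound added at 4 s, acetylcholine EC20 at 144 s and EC80 at 230 s. Agonist, PAM (EC20 increase) and antagonist (EC80 decrease) values fitted by four-parameter logistic.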

| SMILES | Emax (%)* | pEC50 | EC50 |
| --- | --- | --- | --- |
| Cc1cc(C)c2c(n1)sc1c(NC3CNC3)nn(C)c12 [Compound 102, N-(azetidin-3-yl)-1,6,8-trimethyl-1H-pyrazolo[3′,4′:4,5]thieno[2,3-b]pyridin-3-amine] | 69% | 5.96 | 1100 nM |
| Cc1cc(C)c2c(n1)sc1c(NC3CCOC3)nn(C)c12 (centres unmarked) [Compound 103, 1,6,8-trimethyl-N-(tetrahydrofuran-3-yl)-1H-pyrazolo[3′,4′:4,5]thieno[2,3-b]pyridin-3-amine] | 67% | 6.62 | 240 nM |
| Cc1cc(C)c2c(n1)sc1c(NC3CCN(C)C3)nn(C)c12 (centres unmarked) [Compound 105, ,6,8-trimethyl-N-(1-methylpyrrolidin-3-yl)-1H-pyrazolo[3′,4′:4,5]thieno[2,3-b]pyridin-3-amine] | 35% | <5.00 | > 10000 nM |
| Cc1cc(C)c2c(n1)sc1c(NC3CN(C(=O)OC(C)(C)C)C3)nn(C)c12 [Compound 106, tert-butyl 3-((1,6,8-trimethyl-1H-pyrazolo[3′,4′:4,5]thieno[2,3-b]pyridin-3-yl)amino)azetidine-1-carboxylate] | 73% | 7.57 | 27 nM |
| CCOC(=O)CNc1n[nH]c2c1sc1nc(C)cc(C)c12 [Compound 111, ethyl 2-((6,8-dimethyl-1H-pyrazolo[3′,4′:4,5]thieno[2,3-b]pyridin-3-yl)amino)acetate] | 50% | <5.00 | > 10000 nM |
| Cc1cc(C)c2c(n1)sc1c(NC3CCCSC3)nn(CCO)c12 (centres unmarked) [Compound 113, 2-(6,8-dimethyl-3-((tetrahydro-2H-thiopyran-3-yl)amino)-1H-pyrazolo[3′,4′:4,5]thieno[2,3-b]pyridin-1-yl)ethanol] | 62% | 6.37 | 430 nM |
| Cc1cc(C)c2c(n1)sc1c(NC3CCSCC3)nn(CCO)c12 [Compound 114, 2-(6,8-dimethyl-3-((tetrahydro-2H-thiopyran-4-yl)amino)-1H-pyrazolo[3′,4′:4,5]thieno[2,3-b]pyridin-1-yl)ethanol] | 70% | 6.43 | 370 nM |
| Cc1cc(C)c2c(n1)sc1c(NC3CCOCC3)nn(CCO)c12 [Compound 115, 2-(6,8-dimethyl-3-((tetrahydro-2H-pyran-4-yl)amino)-1H-pyrazolo[3′,4′:4,5]thieno[2,3-b]pyridin-1-yl)ethanol] | 69% | 5.72 | 1900 nM |
| CC(=O)N1CCC(CNc2nn(C)c3c2sc2nc(C)cc(C)c23)CC1 [Compound 121, 1-(4-(((1,6,8-trimethyl-1H-pyrazolo[3′,4′:4,5]thieno[2,3-b]pyridin-3-yl)amino)methyl)piperidin-1-yl)ethanone] | 41% | 6.00 | 990 nM |
| Cc1cc(C)c2c(n1)sc1c(NCC3CCN(C(=O)OC(C)(C)C)CC3)nn(C)c12 [Compound 122, tert-butyl 4-(((1,6,8-trimethyl-1H-pyrazolo[3′,4′:4,5]thieno[2,3-b]pyridin-3-yl)amino)methyl)piperidine-1-carboxylate] | 27% | <5.00 | > 10000 nM |
| Cc1cc(C)c2c(n1)sc1c(NCC3CCNCC3)nn(C)c12 [Compound 123, 1,6,8-trimethyl-N-(piperidin-4-ylmethyl)-1H-pyrazolo[3′,4′:4,5]thieno[2,3-b]pyridin-3-amine] | 30% | <5.00 | > 10000 nM |
| Cc1cc(C)c2c(n1)sc1c(NCCC(C)(C)C)n[nH]c12 [Compound 124, N-(3,3-dimethylbutyl)-6,8-dimethyl-1H-pyrazolo[3′,4′:4,5]thieno[2,3-b]pyridin-3-amine] |  | <5.00 | > 10000 nM |

The next lines start with the values.

| Emax (%)* | pEC50 | EC50 | SMILES |
| --- | --- | --- | --- |
| 59% | 5.43 | 3700 nM | Cc1cc(C)c2c(n1)sc1c(NCc3cc(C)on3)nn(C)c12 [Compound 97, 1,6,8-trimethyl-N-((5-methylisoxazol-3-yl)methyl)-1H-pyrazolo[3′,4′:4,5]thieno[2,3-b]pyridin-3-amine] |
| 53% | 6.28 | 520 nM | Cc1csc(CNc2nn(C)c3c2sc2nc(C)cc(C)c23)n1 [Compound 98, 1,6,8-trimethyl-N-((4-methylthiazol-2-yl)methyl)-1H-pyrazolo[3′,4′:4,5]thieno[2,3-b]pyridin-3-amine] |
| 66% | 7.03 | 93 nM | Cc1cc(C)c2c(n1)sc1c(NCc3sc(C)nc3C)nn(C)c12 [Compound 99, N-((2,4-dimethylthiazol-5-yl)methyl)-1,6,8-trimethyl-1H-pyrazolo[3′,4′:4,5]thieno[2,3-b]pyridin-3-amine] |
| 47% | 6.37 | 430 nM | Cc1cc(C)c2c(n1)sc1c(NCc3nccs3)nn(C)c12 [Compound 100, 1,6,8-trimethyl-N-(thiazol-2-ylmethyl)-1H-pyrazolo[3′,4′:4,5]thieno[2,3-b]pyridin-3-amine] |
| 73% | 7.31 | 49 nM | Cc1cc(C)c2c(n1)sc1c(NCc3cccs3)nn(CCO)c12 [Compound 101, 2-(6,8-dimethyl-3-((thiophen-2-ylmethyl)amino)-1H-pyrazolo[3′,4′:4,5]thieno[2,3-b]pyridin-1-yl)ethanol] |
| 61% | 6.00 | 1000 nM | Cc1cc(C)c2c(n1)sc1c(NCC(C)(C)C)nn(C)c12 [Compound 104, 1,6,8-trimethyl-N-neopentyl-1H-pyrazolo[3′,4′:4,5]thieno[2,3-b]pyridin-3-amine] |
| 65% | 6.70 | 200 nM | Cc1cc(C)c2c(n1)sc1c(NC3CCCC3)nn(CCO)c12 [Compound 107, 2-(3-(cyclopentylamino)-6,8-dimethyl-1H-pyrazolo[3′,4′:4,5]thieno[2,3-b]pyridin-1-yl)ethanol] |
| 69% | 6.09 | 820 nM | Cc1cc(C)c2c(n1)sc1c(NC3CCOC3)nn(CCO)c12 (centres unmarked) [Compound 108, 2-(6,8-dimethyl-3-((tetrahydrofuran-3-yl)amino)-1H-pyrazolo[3′,4′:4,5]thieno[2,3-b]pyridin-1-yl)ethanol] |
| 68% | 6.70 | 200 nM | Cc1cc(C)c2c(n1)sc1c(NC3CCSC3)nn(CCO)c12 (centres unmarked) [Compound 109, 2-(6,8-dimethyl-3-((tetrahydrothiophen-3-yl)amino)-1H-pyrazolo[3′,4′:4,5]thieno[2,3-b]pyridin-1-yl)ethanol] |
| 72% | 7.08 | 84 nM | Cc1cc(C)c2c(n1)sc1c(NCc3scnc3C)nn(CCO)c12 [Compound 110, 2-(6,8-dimethyl-3-(((4-methylthiazol-5-yl)methyl)amino)-1H-pyrazolo[3′,4′:4,5]thieno[2,3-b]pyridin-1-yl)ethanol] |
| 71% | 5.68 | 2100 nM | Cc1cc(C)c2c(n1)sc1c(NC(C)C)nn(CCO)c12 [Compound 112, 2-(3-(isopropylamino)-6,8-dimethyl-1H-pyrazolo[3′,4′:4,5]thieno[2,3-b]pyridin-1-yl)ethanol] |
| 73% | 7.24 | 57 nM | Cc1cc(C)c2c(n1)sc1c(NCc3ccc(S(C)(=O)=O)cc3)nn(CCO)c12 [Compound 116, 2-(6,8-dimethyl-3-((4-(methylsulfonyl)benzyl)amino)-1H-pyrazolo[3′,4′:4,5]thieno[2,3-b]pyridin-1-yl)ethanol] |
| 40% | <5.00 | > 10000 nM | COC(=O)Cn1nc(NCc2ccc(S(C)(=O)=O)cc2)c2sc3nc(C)cc(C)c3c21 [Compound 117, methyl 2-(6,8-dimethyl-3-((4-(methylsulfonyl)benzyl)amino)-1H-pyrazolo[3′,4′:4,5]thieno[2,3-b]pyridin-1-yl)acetate] |
| 60% | <5.00 | > 10000 nM | COCCn1nc(NCc2ccc(OC)cc2)c2sc3nc(C)cc(C)c3c21 [Compound 118, N-(4-methoxybenzyl)-1-(2-methoxyethyl)-6,8-dimethyl-1H-pyrazolo[3′,4′:4,5]thieno[2,3-b]pyridin-3-amine] |
| 65% | 5.92 | 1200 nM | COCCn1nc(NCc2ccc(S(C)(=O)=O)cc2)c2sc3nc(C)cc(C)c3c21 [Compound 119, 1-(2-methoxyethyl)-6,8-dimethyl-N-(4-(methylsulfonyl)benzyl)-1H-pyrazolo[3′,4′:4,5]thieno[2,3-b]pyridin-3-amine] |
| 59% | <5.00 | > 10000 nM | CCCn1nc(NCc2ccc(S(C)(=O)=O)cc2)c2sc3nc(C)cc(C)c3c21 [Compound 120, 6,8-dimethyl-N-(4-(methylsulfonyl)benzyl)-1-propyl-1H-pyrazolo[3′,4′:4,5]thieno[2,3-b]pyridin-3-amine] |

Source: patent US9056876B2, “Substituted 1H-pyrazolo[3′,4′,4,5]thieno[2,3-b]pyridin-3-amine analogs as positive allosteric modulators of the muscarinic acetylcholine receptor M4” (VANDERBILT UNIVERSITY, priority 2011, dated 2015)
